In the assay the test system is γ-secretase. As to the kind of experiment: Screening for γ-secretase-modulating activity in SKNBE2 cells carrying APP 695-wild type. Type of assay: cell-based. The note with it: SKNBE2 cells carrying the APP 695-wild type; read-out: EC 50 WTAPP.
As for `CC(C)CCC(c1ccc(C(F)(F)F)cc1)N1CCC(c2cc(-c3ccc(C(F)(F)F)cc3)cc(C(CC(C)C)C(=O)O)c2)CC1` (stereo not shown) [Example 32, 4-Methyl-2-(5-{1-[4-methyl-1-(4-trifluoromethyl-phenyl)-pentyl]-piperidin-4-yl}-4′-trifluoromethyl-biphenyl-3-yl)-pentanoic Acid], the EC50 came out at 2.08 µM. As for `CC(C)CC(C(=O)O)c1cc(NC2CCC(C(C)(C)C)CC2)cc(-c2ccc(C(F)(F)F)cc2)c1` (stereo not shown) [Example 33, 2-[5-(4-tert-Butyl-cyclohexylamino)-4′-trifluoromethyl-biphenyl-3-yl]-4-methyl-pentanoic Acid], the figure is 0.064 µM; as for `CC(C)CCC(Nc1cc(-c2ccc(C(F)(F)F)cc2)cc(C(CC(C)C)C(=O)O)c1)c1cc(F)cc(F)c1` (stereo not shown) [Example 34, 2-{5-[1-(3,5-Difluoro-phenyl)-4-methyl-pentylamino]-4′-trifluoromethyl-biphenyl-3-yl}-4-methyl-pentanoic Acid], 0.33 µM. Take `CC(C)CC(C(=O)O)c1cc(-c2ccc(C(F)(F)F)cc2)cc(C2CCCN(Cc3ccc(C(F)(F)F)cc3)C2)c1` (stereo not shown) [Example 36, 4-Methyl-2-{4′-trifluoromethyl-5-[1-(4-trifluoromethyl-benzyl)-piperidin-3-yl]-biphenyl-3-yl}-pentanoic Acid]: the EC50 is 0.51 µM. For the molecule `CC(C)CCC(Nc1cc(-c2ccc(C(F)(F)F)cc2)cc(C(CC(C)C)C(=O)O)c1)c1cc(C(F)(F)F)cc(C(F)(F)F)c1` (stereo not shown) [Example 39, 2-{5-[1-(3,5-Bis-trifluoromethyl-phenyl)-4-methyl-pentylamino]-4′-trifluoromethyl-biphenyl-3-yl}-4-methyl-pentanoic Acid], the EC50 stood at 0.22 µM. For `CC(C)CCN(Cc1cc(F)cc(F)c1)c1cc(-c2ccc(C(F)(F)F)cc2)cc([C@@H](CC(C)C)C(=O)O)c1` [Example 40, 2-{5-[(3,5-Difluoro-benzyl)-(3-methyl-butyl)-amino]-4′-trifluoromethyl-biphenyl-3-yl}-4-methyl-pentanoic Acid], the EC50 amounted to 0.19 µM.

For the molecule “(S*)4-Methyl-2-(5-{1-[4-methyl-1-(4-trifluoromethyl-phenyl)-pentyl]-piperidin-3-yl}-4′-trifluoromethyl-biphenyl-3-yl)-pentanoic Acid [Example 38]”, the EC50 came to 0.45 µM.

Values taken from patent US20090306392A1, “GSM INTERMEDIATES” (priority 2007, published 2009).
